Measured values from patent US6800674B2, “Anthraquinone compound and water-based ink-jet recording ink containing the compound” (Mitsui Chemicals, Inc., priority 2000, dated 2004).

Key:
Format in all cases: physicochemical
[1] = Evaluation of light fastness (xenon fadeometer, OD2); conditions: aqueous ink, ink production process Example 1; OD2 after 100 hours of irradiation
Protocol: (§1) Glycerin and water were added to the dispersion (A) of colored resin fine particles to obtain aqueous ink having a solid content of 15% by weight. This aqueous ink was used, and filled in an ink cartridge for a piezo-type ink jet printer, and printing and image recording were conducted with the same printer. The test was conducted on the following items.
(E) Evaluation of Light Fastness
Printing density (OD value) was measured using a xenon fadeometer (manufactured by Suga Shikenki) before irradiation and after 100 hours of irradiation. Light fastness was evaluated upon comparing OD2.
OD2=(OD value after irradiation)/(OD value before irradiation)×100[%]

[2] = Evaluation of water resistance (OD1 after/before dipping in water); conditions: aqueous ink, OD1 after dipping in water and air-drying
Protocol: as §1
(D) Evaluation of Water Resistance
With respect to a printed portion of a plain paper having a recorded image thereon for test, printing density (OD value) was measured with a reflection densitometer before dipping in water and after dipping in water and air-drying. Water resistance was evaluated upon comparing OD1.
OD1=(OD value after dipping in water and air-drying)/(OD value before dipping in water)×100[%]

[3] = Evaluation of light fastness (xenon fadeometer, OD2); conditions: aqueous ink, ink production process Example 2; OD2 after 100 hours of irradiation
[4] = ink production process Example 1
[5] = ink production process Example 2

SMILES	E (Evaluation of light fastness) [1]	D (Evaluation of water resistance) [2, 4]	E (Evaluation of light fastness) [3]	D (Evaluation of water resistance) [2, 5]
CCCCC(CC)C(=O)Nc1ccccc1Oc1cc(O)c2c(c1N)C(=O)c1ccccc1C2=O (stereo not drawn) [compound 33]	◯ (OD value is 70 to less than 80%.)	◯ (OD value is 70 to less than 80%.)	–	–
CCCCCCCCN(CCCCCCCC)c1cccc(Oc2cc(O)c3c(c2N)C(=O)c2ccccc2C3=O)c1 [Coloring matter No. 1]	⊚⊚ (OD value is 90 to 100%.)	⊚⊚ (OD value is 90 to 100%.)	–	–
CCCCCCCCCc1ccc(Oc2cc(O)c3c(c2N)C(=O)c2ccccc2C3=O)cc1 [compound 38]	◯ (OD value is 70 to less than 80%.)	◯ (OD value is 70 to less than 80%.)	–	–
Nc1ccccc1Sc1cc(O)c2c(c1N)C(=O)c1ccccc1C2=O [compound 22]	Δ (OD value is 50 to less than 70%.)	◯ (OD value is 70 to less than 80%.)	–	–
CCCCOC(=O)CSc1cc(O)c2c(c1N)C(=O)c1ccccc1C2=O [compound 32]	Δ (OD value is 50 to less than 70%.)	◯ (OD value is 70 to less than 80%.)	–	–
CCCC(C)N(c1cccc(Oc2cc(O)c3c(c2N)C(=O)c2ccccc2C3=O)c1)C(C)CCC (stereo not drawn) [compound 11]	⊚⊚ (OD value is 90 to 100%.)	⊚⊚ (OD value is 90 to 100%.)	⊚⊚ (OD value is 90 to 100%.)	⊚⊚ (OD value is 90 to 100%.)
CCCCCCCCCCCCCCCCCCOC(=O)CSc1cc(O)c2c(c1N)C(=O)c1ccccc1C2=O [compound 27]	Δ (OD value is 50 to less than 70%.)	◯ (OD value is 70 to less than 80%.)	–	–
Nc1ccccc1Oc1cc(O)c2c(c1N)C(=O)c1ccccc1C2=O [compound 4]	◯ (OD value is 70 to less than 80%.)	⊚ (OD value is 80 to less than 90%.)	◯ (OD value is 70 to less than 80%.)	⊚ (OD value is 80 to less than 90%.)
CCCCN(CCCC)c1cccc(Oc2cc(O)c3c(c2N)C(=O)c2ccc(CC)cc2C3=O)c1 [compound 14]	⊚⊚ (OD value is 90 to 100%.)	⊚⊚ (OD value is 90 to 100%.)	⊚⊚ (OD value is 90 to 100%.)	⊚⊚ (OD value is 90 to 100%.)
CN(C)c1cccc(Oc2cc(O)c3c(c2N)C(=O)c2ccccc2C3=O)c1 [compound 5]	⊚ (OD value is 80 to less than 90%.)	⊚⊚ (OD value is 90 to 100%.)	⊚ (OD value is 80 to less than 90%.)	⊚⊚ (OD value is 90 to 100%.)
CCCCN(CCCC)c1cccc(CCOc2cc(O)c3c(c2N)C(=O)c2ccccc2C3=O)c1 [compound 36]	◯ (OD value is 70 to less than 80%.)	◯ (OD value is 70 to less than 80%.)	–	–
CCN(CC)c1cccc(Oc2cc(O)c3c(c2N)C(=O)c2cc(C)ccc2C3=O)c1 [compound 13]	⊚⊚ (OD value is 90 to 100%.)	⊚⊚ (OD value is 90 to 100%.)	⊚⊚ (OD value is 90 to 100%.)	⊚⊚ (OD value is 90 to 100%.)
CCN(CC)c1cccc(Oc2cc(O)c3c(c2N)C(=O)c2ccc(OC)cc2C3=O)c1 [compound 16]	⊚ (OD value is 80 to less than 90%.)	⊚ (OD value is 80 to less than 90%.)	⊚ (OD value is 80 to less than 90%.)	⊚ (OD value is 80 to less than 90%.)
CCCCC(CC)C(=O)Nc1cccc(Oc2cc(O)c3c(c2N)C(=O)c2ccccc2C3=O)c1 (stereo not drawn) [compound 34]	◯ (OD value is 70 to less than 80%.)	◯ (OD value is 70 to less than 80%.)	–	–
Nc1c(Oc2ccccc2)cc(O)c2c1C(=O)c1ccccc1C2=O [compound 23]	Δ (OD value is 50 to less than 70%.)	◯ (OD value is 70 to less than 80%.)	–	–
CCN(CC)c1cccc(Oc2cc(O)c3c(c2N)C(=O)c2ccccc2C3=O)c1 [compound 7]	⊚ (OD value is 80 to less than 90%.)	⊚⊚ (OD value is 90 to 100%.)	⊚ (OD value is 80 to less than 90%.)	⊚⊚ (OD value is 90 to 100%.)

SMILES	E (Evaluation of light fastness) [1]	D (Evaluation of water resistance) [2, 4]	E (Evaluation of light fastness) [3]	D (Evaluation of water resistance) [2, 5]
Nc1c(Oc2ccccc2NC(=O)c2ccccc2)cc(O)c2c1C(=O)c1ccccc1C2=O [compound 35]	◯ (OD value is 70 to less than 80%.)	◯ (OD value is 70 to less than 80%.)	–	–
Cc1ccc(CCCOc2cc(O)c3c(c2N)C(=O)c2ccccc2C3=O)cc1 [compound 25]	◯ (OD value is 70 to less than 80%.)	◯ (OD value is 70 to less than 80%.)	–	–
Cc1cccc(Oc2cc(O)c3c(c2N)C(=O)c2ccccc2C3=O)c1 [compound 24]	◯ (OD value is 70 to less than 80%.)	◯ (OD value is 70 to less than 80%.)	–	–
CCNc1cccc(Oc2cc(O)c3c(c2N)C(=O)c2ccccc2C3=O)c1 [compound 6]	⊚ (OD value is 80 to less than 90%.)	⊚⊚ (OD value is 90 to 100%.)	◯ (OD value is 70 to less than 80%.)	⊚⊚ (OD value is 90 to 100%.)
Nc1c(SCCOCCSc2cc(O)c3c(c2N)C(=O)c2ccccc2C3=O)cc(O)c2c1C(=O)c1ccccc1C2=O [compound 31]	Δ (OD value is 50 to less than 70%.)	◯ (OD value is 70 to less than 80%.)	–	–
CCCCC(CC)COC(=O)CSc1cccc(Oc2cc(O)c3c(c2N)C(=O)c2ccccc2C3=O)c1 (stereo not drawn) [compound 26]	◯ (OD value is 70 to less than 80%.)	◯ (OD value is 70 to less than 80%.)	–	–
CCCCCCCCSc1cc(O)c2c(c1N)C(=O)c1ccccc1C2=O [compound 21]	Δ (OD value is 50 to less than 70%.)	◯ (OD value is 70 to less than 80%.)	–	–
CCCCC(CC)COC(=O)CSc1cc(O)c2c(c1N)C(=O)c1ccccc1C2=O (stereo not drawn) [compound 30]	Δ (OD value is 50 to less than 70%.)	◯ (OD value is 70 to less than 80%.)	–	–
CCCCCCCCOC(=O)CSc1cc(O)c2c(c1N)C(=O)c1ccccc1C2=O [compound 20]	Δ (OD value is 50 to less than 70%.)	◯ (OD value is 70 to less than 80%.)	–	–
CCCCC(CC)CC(=O)Nc1ccc(O)cc1Sc1cc(O)c2c(c1N)C(=O)c1ccccc1C2=O (stereo not drawn) [compound 19]	Δ (OD value is 50 to less than 70%.)	◯ (OD value is 70 to less than 80%.)	–	–
CCCCC(CC)COC(=O)CCSc1cc(O)c2c(c1N)C(=O)c1ccccc1C2=O (stereo not drawn) [compound 29]	Δ (OD value is 50 to less than 70%.)	◯ (OD value is 70 to less than 80%.)	–	–
CCCCC(CC)COC(=O)CSc1ccc(Oc2cc(O)c3c(c2N)C(=O)c2ccccc2C3=O)cc1 (stereo not drawn) [compound 40]	◯ (OD value is 70 to less than 80%.)	◯ (OD value is 70 to less than 80%.)	–	–
CCCCC(CC)C(=O)Oc1ccc(Oc2cc(O)c3c(c2N)C(=O)c2ccccc2C3=O)cc1 (stereo not drawn) [compound 39]	◯ (OD value is 70 to less than 80%.)	◯ (OD value is 70 to less than 80%.)	–	–
CCCCC(CC)COC(=O)CSc1ccccc1Oc1cc(O)c2c(c1N)C(=O)c1ccccc1C2=O (stereo not drawn) [compound 28]	◯ (OD value is 70 to less than 80%.)	◯ (OD value is 70 to less than 80%.)	–	–
Nc1c(Oc2cccc(C(F)(F)F)c2)cc(O)c2c1C(=O)c1ccccc1C2=O [compound 37]	◯ (OD value is 70 to less than 80%.)	◯ (OD value is 70 to less than 80%.)	–	–
